Experiment [1] concerns the target T1, BcGalB (Heyndrickxia coagulans, UniProt G2TH90).
T1 construct: recombinant in E. coli Rosetta(DE3) pLysS, pET28b, C-terminal His-tag, ~75 kDa monomer, hexamer in solution
Nature of the experiment: inhibition of ONP-β-gal hydrolysis. It counts as biochemical. Particulars: 0-100 mM sugar, 5 min preincubation, standard assay 10 mM ONP-β-gal, 100 mM sodium citrate pH 5.0, 60 °C.

Experiment [2] concerns the target T1, BcGalB. Nature of the experiment: release of ortho-nitrophenol at […] nm, non-linear regression. It counts as biochemical. Particulars: 100 mM sodium citrate pH 5.0, 60 °C.
The target in experiment [3] is B. coagulans MA-13 β-galactosidase expressed in E. coli (BcGalB) (Bacillus coagulans MA-13). Nature of the experiment: SEC-MALS; S200 16/60 column with Mini DAWN Treos light scattering and QELS; 1 mg protein at 1 mg/ml; 0.5 ml/min; 100 mM sodium phosphate pH 8.0, 1 mM DTT; data not shown.

In the case of `OC1OC[C@@H](O)[C@@H](O)[C@@H]1O` (stereo partly drawn) [D-arabinose], the “retained activity at the highest concentration” value on BcGalB [1] was greater than 66%. On to `OC1OC[C@@H](O)[C@H](O)[C@H]1O` (stereo partly drawn) [D-xylose], for which the “retained activity at the highest concentration” value at BcGalB [1] (highest concentration 100 mM, at least 66% retained) is greater than 66%. One may read the Km as the concentration of substrate that gives half-maximal velocity. With `O=[N+]([O-])c1ccccc1O[C@@H]1O[C@H](CO)[C@H](O)[C@H](O)[C@H]1O` [ONP-β-gal], the Km on BcGalB [2] was 723 µM. Broadly, the stoichiometry N is a count of units in the complex or per binding partner. Turning to “B. coagulans MA-13 β-galactosidase expressed in E. coli (BcGalB) (enzyme)”, in experiment [3], the stoichiometry N was 6.

The record behind these values is PMC7977261, “Prebiotic properties of Bacillus coagulans MA-13: production of galactoside hydrolyzing enzymes and characterization of the transglycosylation properties of a GH42 β-galactosidase” (Microbial Cell Factories, 2021).
